Assay results from patent publication US20210330818A1, “METHOD FOR ANALYZING NON-OBSERVED EFFECT CONCENTRATION (NOEC) OF CHEMICAL ON ORGANISM” (priority 2020, published 2021).

Assays:
quail = experiment: Chronic toxicity (growth and reproduction) test for quails fed poisonous feedstuff; type: in vivo; settings: for Egg production: average daily, day 40 to 48; for Stillbirth rate: eggs of day 45 to 50; for NOEC (smallest NOEC among the endpoint effects): quail, overall over body weight, egg production, stillbirth rate
Source text: In the test, the quail was adopted as a test organism, acetamiprid and MCPA were adopted as test chemicals, and the end effects were body weight, average daily egg production and stillbirth rate.
Healthy and lively quails, which were 30-day old and weighed 90 g to 110 g, were selected for the test. The male and female were raised separately, with 10 quails for each cage. The quails were fed with a poisonous feedstuff twice a day at the same feeding amount for a long time, with an average feeding amount of 20 g per day for each quail. Since the feeding started, the body weight was recorded for quails in each treatment; the number of eggs produced on day 40 to 48 was counted; the eggs produced on day 45 to 50 were collected and hatched in a poultry-specific hatcher separately for each treatment; and the stillbirth rate was calculated. In this example, the endpoint effect data were body weight, egg production and stillbirth rate.

Trichogramma = experiment: Chronic toxicity test on Trichogramma, egg card-dipping method; settings: for NOEC (smallest NOEC among the endpoint effects): Trichogramma, overall over egg yield, emergence rate, adult survival time
Source text: Trichogramma is one of the natural enemies that are most widely used and have dominant influence. As an important means to control insect pests, chemical pesticides can also cause toxic and side effects to natural enemies of the insect pests that will be killed by the chemical pesticides. […] In the test, Trichogramma was adopted as a test organism, dimethoate and imidacloprid were adopted as test chemicals, and endpoint effects were egg yield, emergence rate and adult survival time. 6 treatment concentrations (including 1 blank control and 5 test chemical concentrations, see Table 1 for details) were set for each test chemical group.
The egg card-dipping method was adopted. A 1.0 cm×2.0 cm card of rice moth eggs (approximately 100 eggs) was placed in each finger tube, then about 20 Trichogramma adults at 4 h to 6 h after emergence were introduced, and the Trichogramma adults were removed after they had parasitized the rice moth eggs for 24 h. 144 h later, the egg cards were dipped in test solutions with different concentrations separately for 5 s, then taken out and air dried, and put into finger tubes. The tubes were sealed with a black cloth, and then put in an incubator until the emergence of Trichogramma adults was completed. A 0.1% Triton X-100 aqueous solution was adopted as a blank control. 9 replicates were set for each treatment, and divided into three groups for the observation of 3 endpoint effects respectively, namely, with 3 replicates for each endpoint effect. A first group was used to investigate the egg yield; a second group was used to investigate the number of emerged adults, and the emergence rate was calculated (emergence rate=the number of emerged adults/the number of […]×100%); and a third group was used to investigate the adult survival time. If the number of emerged adults is less than 30 or the emerged adults have a low vitality and thus cannot be transferred to a new finger tube autonomously, the parasitism rate and survival time will not be investigated.

[1] = mass concentration 0.5 mg/Lfeedstuff
[2] = mass concentration 2 mg/Lfeedstuff
[3] = mass concentration 7 mg/Lfeedstuff
[4] = mass concentration 30 mg/Lfeedstuff
[5] = mass concentration 130 mg/Lfeedstuff
[6] = mass concentration 1.25 mg/Lfeedstuff
[7] = mass concentration 6.25 mg/Lfeedstuff
[8] = mass concentration 25 mg/Lfeedstuff
[9] = mass concentration 125 mg/Lfeedstuff
[10] = mass concentration 500 mg/Lfeedstuff

SMILES: C/C(=N\C#N)N(C)Cc1ccc(Cl)nc1 [Acetamiprid, acetamiprid]
- Validation: body weight compared with blank control (quail; 125 mg/L): no significant difference
- Validation: egg production compared with blank control (quail; 125 mg/L): no significant difference
- Validation: stillbirth rate compared with blank control (quail; 125 mg/L): no significant difference
- NOEC for chronic toxicity in quails based on the body weight (quail): 130 mg/kgfeedstuff
- NOEC for chronic toxicity in quails based on the egg production (quail): 130 mg/kgfeedstuff
- NOEC for chronic toxicity in quails based on the stillbirth rate (quail): 130 mg/kgfeedstuff
- Body weight (quail; [1]): 150.9 a g
- Egg production (quail; [1]): 0.87 a eggs
- Stillbirth rate (quail; [1]): 23.4 a %
- Body weight (quail; [2]): 156.7 a g
- Egg production (quail; [2]): 0.86 a eggs
- Stillbirth rate (quail; [2]): 16.7 a %
- Body weight (quail; [3]): 153.6 a g
- Egg production (quail; [3]): 0.87 a eggs
- Stillbirth rate (quail; [3]): 25.7 a %
- Body weight (quail; [4]): 151.9 a g
- Egg production (quail; [4]): 0.89 a eggs
- Stillbirth rate (quail; [4]): 26.4 a %
- Body weight (quail; [5]): 145.4 a g
- Egg production (quail; [5]): 0.86 a eggs
- Stillbirth rate (quail; [5]): 21.9 a %
- NOEC (smallest NOEC among the endpoint effects) (quail): 130 mg/kgfeedstuff

SMILES: CNC(=O)CSP(=S)(OC)OC [Dimethoate, dimethoate]
- Validation: egg yield compared with blank control (Trichogramma; 90 mg/L): no significant difference
- NOEC (smallest NOEC among the endpoint effects) (Trichogramma): 100 mg/L
- NOEC for chronic toxicity in Trichogramma based on the adult survival time (Trichogramma): 400 mg/L
- NOEC for chronic toxicity in Trichogramma based on the egg yield (Trichogramma): 100 mg/L
- NOEC for chronic toxicity in Trichogramma based on the emergence rate (Trichogramma): 200 mg/L
- Adult survival time (Trichogramma; mass concentration 25 mg/L): 3.15 a d
- Egg yield (Trichogramma; mass concentration 25 mg/L): 36.1 a eggs
- Adult survival time (Trichogramma; mass concentration 50 mg/L): 3.27 a d
- Egg yield (Trichogramma; mass concentration 50 mg/L): 34.2 a eggs
- Adult survival time (Trichogramma; mass concentration 100 mg/L): 3.30 a d
- Egg yield (Trichogramma; mass concentration 100 mg/L): 31.6 a eggs
- Adult survival time (Trichogramma; mass concentration 200 mg/L): 2.67 a d
- Egg yield (Trichogramma; mass concentration 200 mg/L): 27.2 b eggs
- Adult survival time (Trichogramma; mass concentration 400 mg/L): 2.32 a d
- Egg yield (Trichogramma; mass concentration 400 mg/L): 20.7 b eggs

SMILES: O=[N+]([O-])NC1=NCCN1Cc1ccc(Cl)nc1 [Imidacloprid, imidacloprid]
- Validation: emergence rate compared with blank control (Trichogramma; 35 mg/L): no significant difference
- NOEC (smallest NOEC among the endpoint effects) (Trichogramma): 40 mg/L
- NOEC for chronic toxicity in Trichogramma based on the adult survival time (Trichogramma): 160 mg/L
- NOEC for chronic toxicity in Trichogramma based on the egg yield (Trichogramma): 80 mg/L
- NOEC for chronic toxicity in Trichogramma based on the emergence rate (Trichogramma): 40 mg/L
- Adult survival time (Trichogramma; mass concentration 10 mg/L): 3.60 a d
- Egg yield (Trichogramma; mass concentration 10 mg/L): 37.0 a eggs
- Emergence rate (Trichogramma; mass concentration 10 mg/L): 90.57 a %
- Adult survival time (Trichogramma; mass concentration 20 mg/L): 3.23 a d
- Egg yield (Trichogramma; mass concentration 20 mg/L): 37.3 a eggs
- Emergence rate (Trichogramma; mass concentration 20 mg/L): 87.81 a %
- Adult survival time (Trichogramma; mass concentration 40 mg/L): 3.50 a d
- Egg yield (Trichogramma; mass concentration 40 mg/L): 36.0 a eggs
- Emergence rate (Trichogramma; mass concentration 40 mg/L): 78.19 a %
- Adult survival time (Trichogramma; mass concentration 80 mg/L): 3.21 a d
- Egg yield (Trichogramma; mass concentration 80 mg/L): 34.2 a eggs
- Emergence rate (Trichogramma; mass concentration 80 mg/L): 56.12 b %
- Adult survival time (Trichogramma; mass concentration 160 mg/L): 3.12 a d
- Egg yield (Trichogramma; mass concentration 160 mg/L): 28.5 b eggs
- Emergence rate (Trichogramma; mass concentration 160 mg/L): 27.65 c %

SMILES: Cc1cc(Cl)ccc1OCC(=O)O [MCPA]
- Validation: body weight compared with blank control (quail; 20 mg/L): no significant difference
- NOEC for chronic toxicity in quails based on the body weight (quail): 25 mg/kgfeedstuff
- NOEC for chronic toxicity in quails based on the egg production (quail): 500 mg/kgfeedstuff
- NOEC for chronic toxicity in quails based on the stillbirth rate (quail): 25 mg/kgfeedstuff
- Body weight (quail; [6]): 148.5 ab g
- Egg production (quail; [6]): 0.97 a eggs
- Stillbirth rate (quail; [6]): 22.4 a %
- Body weight (quail; [7]): 155.3 ab g
- Egg production (quail; [7]): 0.96 a eggs
- Stillbirth rate (quail; [7]): 23.2 ab %
- Body weight (quail; [8]): 150.7 ab g
- Egg production (quail; [8]): 0.96 a eggs
- Stillbirth rate (quail; [8]): 21.2 a %
- Body weight (quail; [9]): 145.2 b g
- Egg production (quail; [9]): 0.95 a eggs
- Stillbirth rate (quail; [9]): 26.4 b %
- Body weight (quail; [10]): 159.5 a g
- Egg production (quail; [10]): 0.94 a eggs
- Stillbirth rate (quail; [10]): 37.3 b %
- NOEC (smallest NOEC among the endpoint effects) (quail): 25 mg/kgfeedstuff
